Test results taken from patent US20220242963A1, “B-CELL ACTIVATING CD73 ANTIBODIES” (CORVUS PHARMACEUTICALS, INC., priority 2018, published 2022).

Test system: B cells (CD19+CD3−)
Experiment: B cell activation in healthy donor PBMC, flow cytometry of surface markers / phospho ERK
Type: cell-based, human
Details: human B lymphocytes
Text: With reference to FIGS. 2A-2E, each group of four bars from left to right represent data for: untreated donors, donors treated with human IgG1 isotype control, donors treated with BCR stimulation, and donors treated with CPI-006. The experiments for FIGS. 2A-2E are based on healthy donor PBMC treated overnight with flow cytometry analysis of surface markers on B cells (CD19^POS CD3^NEG). These lymphocyte markers are consistent with activation of B cells as well as other antigen presenting cell populations. […] The bar graph legend from top to bottom is representative of the data bars from left to right. […] For FIG. 2H the bar graph legend from top to bottom is representative of the data bars from left to right. For FIG. 2I the legend from top to bottom is representative of the data from top to bottom. […] For each group of four bars, the legend from top to bottom are representative of the bars from left to right.
PBMC were isolated from healthy donors and incubated with bead-bound anti-IgM, CPI-006 (10 μg/mL), or human IgG1 isotype control (10 μg/mL) overnight. Flow cytometry analysis was performed with gating on B cells (CD19+CD3−) and mean fluorescence intensity (MFI) was reported for staining with antibodies to the cell surface markers CD69, CD83, and CD25, as shown in FIGS. 2A-2C. PBMC were isolated from healthy donors and incubated with CPI-006, CPI-016, human IgG1 isotype control, and anti-human CD73 antibody, clone AD2 (available from Bio-Rad Antibodies) over a range of concentrations from about 0.1 μg/mL to more than 10 μg/mL. Flow cytometry analysis was performed with gating on B cells (CD19+CD3−) and mean fluorescence intensity (MFI) is reported for antibody staining of CD69, as shown in FIG. 2F. PBMC were isolated from healthy donors and incubated overnight with bead-bound anti-IgM or CPI-006 (1 μg/mL)+/−BTK inhibitor, ibrutinib (100 nM). Flow cytometry analysis was performed with gating on B cells (CD19+CD3−) and mean fluorescence intensity (MFI) is reported for antibody staining of CD69 and CD83, as shown in FIG. 2G. PBMC were isolated from healthy donors and incubated overnight with APCP (1 μM) or CPI-006 (1 μg/mL)+/−NECA (5′-N-ethylcarboxamidoadenosine). Flow cytometry analysis was performed with gating on B cells (CD19+CD3−) and mean fluorescence intensity (MFI) is reported for antibody staining of CD69, as shown in FIGS. 2H-2I. PBMC were isolated from healthy donors and incubated with the indicated treatments for 15 minutes. Flow cytometry analysis was performed with gating on the indicated cell populations and staining of phospho ERK was evaluated, as shown in FIG. 2J.

## MEDI9447: anti-CD73 antibody described by Hay CM et al., Oncoimmunology 2016 [reference compound]
  direct B cell activation: do not show this effect
